Measured values from publication PMC11013143, “4-Chloroisocoumarins as Chlamydial Protease Inhibitors and Anti-Chlamydial Agents” (Molecules, 2024).

How the values were obtained:
CtHtrA = molecular target: T1, CtHtrA (Chlamydia trachomatis serovar D, UniProt P18584); experiment: CtHtrA protease inhibition assay; type: biochemical; details: for Relative Potency against CtHtrA: [IC50 of control]/[IC50 test compound]; for IC50: IC50 against CtHtrA; for Relative Selectivity: (relative CtHtrA potency)/(relative HLE potency)
T1 construct: made in house; host or cells: E. coli BL21(DE3), pET22b
Protocol: The inhibitory activity of compounds 2a–g against CtHtrA was evaluated. […] As these compounds are reportedly covalent inhibitors of serine proteases, a true IC50 is unable to be calculated. Instead, the residual activity of the protease is monitored over time in response to a range of compound concentrations, and an IC50 value is interpolated from a dose–response curve (see Figures S2–S4 and Tables S1 and S2). This IC50 value is then compared to a positive control (JO146 was used for 2a–g, and 2g was used for 6a–h), giving the ‘relative potency’. This is the established method for assessing CtHtrA inhibitory potency. […] This effect may be due to depth restrictions within the S1 subpocket, as kinetic studies on the rates of protease inhibition in HLE were reduced by larger C-3 alkoxy substituents. Chain branching (iso-propyl and sec-butyl substituents) increased the activity, resulting in a 1.4-fold increase for 2e over 2b and a 2.8-fold improvement for 2g over 2c.
CtHtrA was expressed using an procedure adapted from the literature. Recombinant E. coli BL21(DE3) pET22b was grown in LB media containing 100 ug/mL ampicillin to an OD600 of 0.5-0.6 in 5 × 400 mL batches at 37 °C. Isopropyl β-D-1-thioglactopyranoside (1 M, 400 µL, 1 mM final concentration) was added to each flask and incubated at 30 °C with shaking at 150 rpm for an additional 2.5 h. The culture was centrifuged at 4000× g for 15 min at 4 °C, and the cell pellet was harvested and resuspended in lysis buffer (50 mM phosphate, 10 mM imidazole, 500 mM NaCl, 0.1% Triton X-100, 10% glycerol). Lysozyme was added to the suspended cells and was sonicated in 15 cycles of 15 s, with one minute between cycles while maintaining 4 °C, and then centrifuged at 8000× g for 20 min to remove any debris, retaining the supernatant for protein purification.
TALON® metal affinity resin (Takara cat no. 635652, 5 mL) was added to each lysate tube and washed sequentially with lysis buffer (2 × 45 mL) and stringency buffer (4 × 45 mL) and then eluted with elution buffer (2 × 5 mL), allowing incubations at 4 °C for 20 min per wash, and centrifuging at 2500× g and 4 °C between washes to pellet the resin. The eluates were dialyzed in Tris buffer (pH 7.0, 50 mM, 4 L) with magnesium chloride (20 mM) at 4 °C five times over 24 h, with a minimum of three hours per dialysis change. Protein expression and isolation were confirmed with SDS-PAGE Coomassie stained gel, which was examined for the band at the correct size, and a BCA assay to confirm purified protein concentration prior to use.
CtHtrA was added to 25 wells in a black 96-well plate (40–80 µL, 10 µL increments), to which Tris-HCl buffer (50 mM, pH 7.0 with 20 mM MgCl2) was added to bring the total volume to 90 µL for 10 wells and 85 µL for the remaining 15. JO146 (10 µM, 5 µL) was added to 5 wells and JO146 (1 µM, 5 µL) was added to another 5 wells, with DMSO (5 µL) being added to the remaining 5 as a control. The plate was incubated at 37 °C for 10 min before substrate (MCA-ENLHLPLPIIFK-DNP, 10 µL, 1 mg/mL, 50% isopropanol in buffer) was added and analyzed in a TECAN Infinite Pro M200 plate reader with an excitation wavelength of 340 nm and fluorescence measured at 405 nm with four reads per well at 60 s intervals. A minimum volume of CtHtrA granting a fluorescence change of 300 min^−1 was used for subsequent assay.
The determined appropriate volume of CtHtrA in buffer was added to a 96-well non-transparent black plate and diluted to 85 µL with buffer solution. Drug or control (5 µL) at a maximum of 20% DMSO/80% buffer was added to the appropriate well with DMSO controls, and the plate was incubated for 10 min to allow activation by the protein. MCA-ENLHLPLPIIFK-DNP (Mimotopes, Australia, 1 mg/mL, 10 µL) was added and immediately monitored on a TECAN M200 Infinite plate reader at 37 °C every 60 s for 30 min, using the same wavelengths as for the activity evaluation. […]

C. trachomatis = experiment: Chlamydia trachomatis growth inhibition assay in HEp-2 host cells; type: cell-based; details: 62.5 µM; for anti-chlamydial activity against C. trachomatis: 30 h post infection, HEp-2 host cells
Protocol: The workflow for the evaluation of chlamydial growth inhibition is described in the supplementary information (Figure S6). Briefly, HEp-2 cells were seeded in a 96-well plate and grown for 24 h; they were then infected with a fixed quantity of C. trachomatis. The infection was propagated for 4 h, and then a mixture of test compound and cycloheximide was added and the plate was incubated for a further 26 h (30 h post infection). The cells were fixed with methanol and then stained with fluorescent antibodies to visualize chlamydial inclusions, and the growth was measured using inclusion counts relative to vehicle controls.
HEp-2 cells were grown until confluent in a T-75 flask with DMEM (containing 10% FCS, gentamycin (0.05 mg/mL), streptomycin (0.1 mg/mL) and glutamine (Sigma-Aldrich Cat No. G7513, 4 mM); they were then harvested with trypsin, and the cell density was determined with a haemocytometer. Cells were diluted to 1 × 10^5 cells/mL, and 200 µL was dispensed to each well in a 96-well plate and then incubated for 24 h at 5% CO2 at 37 °C.
The supernatant was removed, and 100 µL of the respective chlamydia species in media (100,000 IFU/mL) was added, giving an MOI of 0.5. The plate was sealed and centrifuged at 500× g/28 °C for 30 min and then incubated for a further 3.5 h at 37 °C with 5% CO2. The supernatant was removed, and 100 µL of cycloheximide in DMEM (1 µg/mL) was added in addition to 100 µL of drug stock solution to each respective well with DMSO and media negative controls and also azithromycin positive control. The plate was incubated for a further 26 h.
The supernatant was removed, and wells were washed with PBS (2 × 150 µL) and then fixed in methanol for eight minutes. The methanol was removed and washed with additional PBS (2 × 150 µL) and stored at 4 °C with 100 µL PBS per well and then stained and analyzed using fluorescence microscopy, which is outlined below.
Cells in fixed plates were permeabilized with 0.5% Triton X-100 in PBS for 15 min and then blocked with 1% BSA in PBS for 45 min. Anti-HtrA polyclonal antibody (sera) (1:600) (in-house), anti-mouse tubulin (Sigma-Aldrich Cat no. T-5168, 1:3000) and DAPI (125 ng/mL) in PBS were added to each well (70 µL) and then gently shaken at room temperature while shielding it from light for 45 min. The primary antibodies were removed, and the wells were washed with PBS (4 × 150 µL). Secondary antibodies (goat anti-rabbit Alexafluor 488, Thermo Fisher Cat No. A-11008 and goat anti-mouse Alexafluor 568 (Thermo Fisher Cat No. A-11004)) in PBS (70 µL, 1:600 respectively) were added and the wells were gently shaken at room temperature while shielding them from light for 45 min. The antibodies were removed, and the wells were washed with PBS (5 × 150 µL); cells were then stored with PBS (100 µL per well) at 4 °C pending analysis.
Plates were analyzed on an INcell Analyzer 2200 (Cytiva Life Sciences, Marlborough, MA, USA) using both laser autofocus (10%) and software autofocus modes, with ten random images per well covering a minimum of 80% of the well at 10x magnification. Non-morphologically affected inclusions were counted using a macro in ImageJ (v1.54f), and MIC was defined as being one two-fold dilution more concentrated than MICTP (where MICTP is defined as the lowest concentration to produce ≥90% morphologically abnormal inclusions) relative to solvent controls.

[1] = molecular target: T2, Human Leukocyte Elastase (HLE) (Homo sapiens, UniProt P08246); set-up: method as in PMID 3910097; details: cited from earlier work
T2 construct: purchased Athens Research and Technology 16-15-051200
T2 sequence (P08246 30-247 limits assumed): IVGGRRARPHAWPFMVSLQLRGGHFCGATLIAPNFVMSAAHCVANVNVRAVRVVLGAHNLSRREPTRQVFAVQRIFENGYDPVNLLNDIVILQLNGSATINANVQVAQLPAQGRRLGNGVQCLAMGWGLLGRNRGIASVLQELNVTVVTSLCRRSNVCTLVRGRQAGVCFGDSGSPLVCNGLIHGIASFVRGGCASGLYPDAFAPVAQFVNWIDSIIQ

[2] = molecular target: T2, Human Leukocyte Elastase (HLE); experiment: HLE protease inhibition assay; type: biochemical; details: for IC50: Table S1, variable slope four parameter fit, read-out: IC50 against HLE; for Relative Potency against HLE: [IC50 of JO146]/[IC50 test compound]
Protocol: Elastase was purchased from Athens Research and Technology (Cat No. 16-15-051200). Elastase (100 µg) was dissolved in Tris buffer (100 mM Tris, 20 mM CaCl2, pH 8.1, 3.14 mL), giving a concentration of 1.117 µM, and 25 µL was added to each well containing the respective inhibitor. The plate was incubated at 37 °C for 15 min.
N-Suc-AAA-pNA (Sigma Aldrich, Bayswater, Australia, S4760, 100 µL, 1 mg/mL, […]) was added to each well, and the absorbance was monitored every six minutes at 405 nm. The rate of change of absorbance was used as a comparison to controls to determine the % inhibition of protein in Microsoft Excel^TM (v2402), and these values were exported to GraphPad Prism (v8.0.1) for IC50 calculation.

[3] = Table S2, Batch 1, control JO146
[4] = Table S2, Batch 2, control JO146

T1 sequence (P18584 17-497): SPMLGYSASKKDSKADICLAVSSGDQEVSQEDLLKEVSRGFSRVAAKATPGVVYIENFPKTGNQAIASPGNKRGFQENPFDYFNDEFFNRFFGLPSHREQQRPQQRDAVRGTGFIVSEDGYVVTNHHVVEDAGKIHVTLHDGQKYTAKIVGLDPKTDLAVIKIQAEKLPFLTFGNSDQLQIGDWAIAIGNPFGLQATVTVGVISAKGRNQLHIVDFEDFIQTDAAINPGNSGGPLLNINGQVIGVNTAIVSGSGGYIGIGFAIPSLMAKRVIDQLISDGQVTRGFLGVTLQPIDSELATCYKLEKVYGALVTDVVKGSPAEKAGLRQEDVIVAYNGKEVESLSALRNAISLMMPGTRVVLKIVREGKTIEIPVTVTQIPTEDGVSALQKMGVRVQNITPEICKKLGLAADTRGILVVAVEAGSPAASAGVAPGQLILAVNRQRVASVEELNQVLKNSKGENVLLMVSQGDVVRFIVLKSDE

Row | Structure (SMILES) | Relative Selectivity (CtHtrA) | IC50 (CtHtrA; [3]) [µM] | Relative Potency against CtHtrA (CtHtrA; control JO146) | IC50 [2] [µM] | Relative Potency against HLE [2] | further results
1 | CCC(C)Oc1oc(=O)c2cc(Br)ccc2c1Cl (racemic) [Compound 6f, (±)-7-Bromo-3-sec-butoxy-4-chloro-isocoumarin] |  |  |  |  |  | Relative Potency against CtHtrA (CtHtrA; control 2g): 0.057; anti-chlamydial activity against C. trachomatis (C. trachomatis): abolished observable activity
2 | CCC(C)Oc1oc(=O)c2cc(Cl)ccc2c1Cl (racemic) [Compound 6g, (±)-3-sec-Butoxy-4,7-dichloro-isocoumarin] |  |  |  |  |  | IC50 (CtHtrA; Table S2, Batch 5, control 2g): 71.8 µM; Relative Potency against CtHtrA (CtHtrA; control 2g): 0.390; anti-chlamydial activity against C. trachomatis (C. trachomatis): did not significantly affect the efficacy of 2g; statistical significance of anti-chlamydial activity (C. trachomatis; relative to solvent controls): statistically significant anti-chlamydial activity
3 | O=c1oc(Cl)c(Cl)c2ccccc12 [3,4-dichloroisocoumarin] |  |  |  |  |  | molecular turnover against HLE [1]: 3.1
4 | CCOc1oc(=O)c2ccccc2c1Cl [Compound 2b, 3-Ethoxy-4-chloroisocoumarin] | 56.4 | 19.1 | 3.73 | 12.3 | 0.0664 | 
5 | CCCOc1oc(=O)c2ccccc2c1Cl [Compound 2c, 3-Propoxy-4-chloroisocoumarin] | 6.92 | 32 | 2.23 | 2.53 | 0.323 | 
6 | CCCCOc1oc(=O)c2ccccc2c1Cl [Compound 2d, 3-Butoxy-4-chloroisocoumarin] | 5.08 | 45.5 | 1.57 | 2.64 | 0.310 | 
7 | CC(C)Oc1oc(=O)c2ccccc2c1Cl [Compound 2e, 3-iso-Propoxy-4-chloroisocoumarin] | 12.7 |  | 5.32 | 1.95 | 0.419 | fold increase in CtHtrA inhibitory activity (CtHtrA; 2e over 2b): 1.4 fold; IC50 (CtHtrA; [4]): 11.3 µM
8 | CC(C)COc1oc(=O)c2ccccc2c1Cl [Compound 2f, 3-iso-Butoxy-4-chloroisocoumarin] | 4.08 |  | 1.50 | 2.22 | 0.368 | IC50 (CtHtrA; [4]): 40 µM
9 | O=c1oc(Cl)cc2ccccc12 [Compound 3-choro-] |  |  |  |  |  | molecular turnover against HLE [1]: 15
